Reference: US9868716B2, “Method for preventing and/or treating a subject suffering from asthma” (Hong Kong Baptist University, priority 2014, dated 2018)

Experiments:
Syk [1] = assay: Western blot of Syk phosphorylation in PMA/ionomycin-treated Jurkat cells; format: cell-based, Human; details: N7 1 hour, PMA and ionomycin 15 minutes, FIG. 5a
Protocol: (§1) Jurkat T cells were cultured in RPMI1640 containing 10% fetal calf serum, 100 U/ml of penicillin and 100 μg/ml of streptomycin. The cells were passed once every two days with fresh medium. After pretreating the cells with a medicament, PMA and ionomycin were used to treat the cells at different time points. After the treatments, the cells were collected for biomarker measurements.
(§2) Jurkat T cells culture: in a safe range of concentrations, cells were treated with Nujiangexanthone A in corresponding concentrations for 5, 15 and 30 minutes. The samples were collected and lysed. The samples were then separated by 8% gel in SDS-PAGE and transferred to PVDF membrane. The following antibodies were used to analyze the samples: ERK, JNK, p38, IKK, IkBa, NF-kB and so forth. If the compound is found to interfere with the expression and phosphorylation of the target proteins, a corresponding specific inhibitor may be used to conduct a comparative analysis.
(§3) In one test, Jurkat cells were pretreated with N7 and Src family inhibitor PP2 for 1 hour and then co-treated with PMA and ionomycin for 15 minutes. Then, a plurality of proteins of T cells signaling transduction pathways were measured by Western blot.

PBMC of asthma patients = assay: qPCR of cytokines in PBMC of asthma patients; format: cell-based, human; details: mRNA by qPCR, FIG. 4
Protocol: Blood samples were collected from normal (healthy) people and people with asthma Peripheral blood mononuclear cells (PBMC) were isolated. By using Ficoll-density method, the effect of Nujiangexanthone A on the release of various cytokines in the isolated PBMCs was measured by qPCR.

Zap70 = assay: Western Blot of phosphorylated Zap70 in spleen cells of asthma mice; format: in vivo; details: FIG. 2b, 2c
Protocol: (§4) Lymph nodes and spleen of mice were collected. The collected tissues were respectively grinded, counted and cultivated. The cultured tissues were stimulated with PMA and ionomycin for 48 hours. The supernatant and the cells were then collected for analysis. The supernatant was used for examining various cytokines, and the cells were used for measuring expressions of various T cell specific proteins by Western blot.
(§5) To obtain the data in FIG. 2a, murine spleen cells were grinded and treated with OVA for 3 days, and then the supernatants of the cell mixtures were collected for ELISA analysis. […] As shown in FIG. 2b and FIG. 2c, the signal transduction proteins in spleen cells were detected. According to the experimental results, N7 inhibits the phosphorylation of Syk in spleen cells of mice having asthma.

Lck = assay: Western blot of Lck phosphorylation in PMA/ionomycin-treated Jurkat cells; format: cell-based, Human; details: N7 1 hour, PMA and ionomycin 15 minutes, FIG. 5a
Protocol: as §1, §2, §3

[2] = test system: Balb/c mice, asthma animal model; assay: OVA asthma animal model; format: in vivo
Protocol: (§6) Balb/c mice of SPF grade were selected for establishing an asthma animal model. With reference to FIG. 3a, ovalalbumin (OVA) dissolved in PBS with aluminum hydroxide gel was intraperitoneally injected to the mice to trigger systemic allergic responses, i.e. OVA sensitization. Then, atomized OVA was given to stimulate or challenge respiratory tracts of the mice. As such, a control group was prepared. By using the similar approach, treatment groups with an administration of N7 in different concentrations as well as a positive control group with an administration of dexamethasone were established. Also, a further control group of PBS was established by using same volume of PBS to replace OVA and using the PBS to replace the atomized OVA.
(§7) Symptoms of the mice were recorded during the test. Peripheral blood of the mice was collected before the end of the test so as to measure the release of IgE. Airway lavages were collected and the supernatants thereof were tested to measure the release of various cytokines. Cells were counted after being fixed and stained. The effect of Nujiangexanthone A on different types of immune cells was studied.

lung tissue = assay: Cytokines in lung tissue of asthma animal models; format: in vivo; details: asthma model mice; FIG. 7
Protocol: as §6
Some portions of lung tissue of the animal models were collected to evaluate lung inflammatory status. A portion of the collected lung tissue was isolated to extract RNA, and another portion of the lung tissue was grinded and digested for cytokines measurements.

Syk [3] = biological target: T1, Syk (Mus musculus, UniProt P48025); assay: Immunoprecipitation of Syk phosphorylation in IgE/DNP-HSA-stimulated murine mast cells; format: cell-based, mice; details: murine BMMC, N7 1 hour, then antigen 5 minutes; FIG. 1a
T1 sequence (P48025 whole entry): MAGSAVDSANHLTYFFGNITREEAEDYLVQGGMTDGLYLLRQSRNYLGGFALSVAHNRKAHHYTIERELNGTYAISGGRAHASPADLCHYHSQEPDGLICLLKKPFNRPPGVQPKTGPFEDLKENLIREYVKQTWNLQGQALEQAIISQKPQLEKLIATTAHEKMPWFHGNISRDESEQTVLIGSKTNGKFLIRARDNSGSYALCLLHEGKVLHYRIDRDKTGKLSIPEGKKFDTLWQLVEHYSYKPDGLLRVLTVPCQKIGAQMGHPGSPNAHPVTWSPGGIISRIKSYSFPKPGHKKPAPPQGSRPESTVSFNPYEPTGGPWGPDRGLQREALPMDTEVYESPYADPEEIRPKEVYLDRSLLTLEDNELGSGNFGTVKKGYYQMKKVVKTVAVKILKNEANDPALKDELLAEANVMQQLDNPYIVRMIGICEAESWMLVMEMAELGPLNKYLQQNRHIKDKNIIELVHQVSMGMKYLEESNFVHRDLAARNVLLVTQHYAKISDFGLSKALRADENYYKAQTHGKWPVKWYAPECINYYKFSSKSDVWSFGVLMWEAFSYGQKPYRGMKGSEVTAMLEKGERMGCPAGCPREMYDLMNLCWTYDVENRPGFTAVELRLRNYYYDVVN
Protocol: (§8) Bone marrow-derived mast cells (BMMC) of mice were separated from BALB/c murine marrow and were cultured in RPMI1640 liquid containing IL-3, 10% of calf serum, 100 U/ml of penicillin and 100 μg/ml of streptomycin for 6 weeks. Two markers c-kit and FceRI on cell membranes were detected by using flow cytometric analysis. When double-positive cells detected, having both markers, have exceeded 95%, the cultured cells can be used for the experiment.
(§9) Mast cells were pre-treated with IgE overnight, and were washed by PBS thrice. After re-suspended with medium, they were treated with different concentrations of Nujiangexanthone A for 1 hour. Dinitrophenyl human serum albumin (DNP-HSA) was used to treat the cells for 5 minutes. A/G agarose was added into the cell lysates and the mixtures were rotated at a rotator for 1 hour. Antibodies of Syk, Fyn and Lyn were added, and the mixtures were rotated overnight. On the following day, PBS was used to wash the complex of magnetic beads, antibody and protein for 5 times. A Western Blot loading dye was added into the complex and the mixtures were boiled for 5 minutes. […]
(§10) The results of FIG. 1a are obtained by pretreating the antibody-treated mast cells with N7 and Src family inhibitor PP2 for 1 hour and then treating the cells with antigens for 5 minutes. […] The downstream signal pathways of Syk including MAPKs, NF-kB and AP-1 were then analyzed by Western Blot.

murine spleen cells = assay: ELISA of cytokines in spleen cells of asthma mice; format: in vivo; details: spleen cells treated with OVA for 3 days, ELISA (IL-4, IL-5, IL-13, IFNγ); FIG. 2a
Protocol: as §4, §5

[4] = test system: downstream signal pathways of Syk including MAPKs, NF-kB and AP-1; assay: Western Blot of downstream signaling pathways of Syk in murine mast cells; format: cell-based, mice; details: murine BMMC, FIG. 1b
Protocol: as §8
as §2, with “Cells” for “Jurkat T cells culture: in a safe range of concentrations, cells”, “A (N7)” for “A”, “sodium dodecyl sulfate polyacrylaminde gel electrophoresis (SDS-PAGE)” for “SDS-PAGE”, “polyvinylidene fluoride (PVDF)” for “PVDF”
The results of FIG. 1a are obtained by pretreating the antibody-treated mast cells with N7 and Src family inhibitor PP2 for 1 hour and then treating the cells with antigens for 5 minutes. Phosphorylation of Syk, Fyn and Lyn were then examined by immunoprecipitation. The results of FIG. 1b are obtained by pretreating the antibody-treated mast cells with N7 and Src family inhibitor PP2 for one hour and then treating with antigens for 15 minutes. The downstream signal pathways of Syk including MAPKs, NF-kB and AP-1 were then analyzed by Western Blot.

Murine BMMCs = assay: Activation of murine mast cells (cytokines, degranulation, Ca2+, LTC4); format: cell-based, BALB/c mice; details: BMMC
Protocol: Murine BMMCs were isolated from BALB/c murine marrow and were cultured in a RPMI1640 medium containing IL-3, 10% of calf serum, 100 U/ml of penicillin and 100 μg/ml of streptomycin for 6 weeks. Two markers c-kit and FceRI on cell membranes were detected by using flow cytometric analysis. When double-positive cells detected, having both markers, have exceeded 95%, the cultured cells can be used for the experiment.
(§11) IgE mast cells were pretreated with IgE overnight and washed by PBS thrice. After re-suspended with medium, they were treated with different concentrations of Nujiangexanthone A for 1 hour. DNP-HAS or antigen was then used to treat the cells for 6 hours. The supernatants were collected for measurement. The amounts of TNF-α and IL-6 were measured by an ELISA kit.
as §11, with “15 minutes.” for “6 hours.”, “LTC4” for “TNF-α”, “Ca^2+ as well as the degranulation response” for “IL-6”
The amount of b-Hex was measured to evaluate the degranulation response.

Syk [5] = biological target: T1, Syk; assay: Immunohistochemistry of p-Syk in lung tissues of asthma model mice; format: in vivo; details: FIG. 3d
Protocol: as §6, §7

Syk [6] = biological target: T1, Syk; assay: Western Blot of phosphorylated Syk in spleen cells of asthma mice; format: in vivo; design: from tissue; host or cells: mouse spleen cells; details: spleen cells of mice having asthma; FIG. 2b, 2c
Protocol: as §4, §5

Stat6 = assay: Western Blot of phosphorylated Stat6 in spleen cells of asthma mice; format: in vivo; details: FIG. 2b, 2c
Protocol: as §4, §5

Lyn = assay: Immunoprecipitation of Lyn phosphorylation in IgE/DNP-HSA-stimulated murine mast cells; format: cell-based, mice; details: murine BMMC, N7 1 hour, then antigen 5 minutes; FIG. 1a
Protocol: as §8, §9, §10

Fyn [7] = assay: Immunoprecipitation of Fyn phosphorylation in IgE/DNP-HSA-stimulated murine mast cells; format: cell-based, mice; details: murine BMMC, N7 1 hour, then antigen 5 minutes; FIG. 1a
Protocol: as §8, §9, §10

T-bet = assay: Western Blot of T-bet in spleen cells of asthma mice; format: in vivo; details: FIG. 2b, 2c
Protocol: as §4, §5

GATA3 = assay: Western Blot of GATA3 in spleen cells of asthma mice; format: in vivo; details: FIG. 2b, 2c
Protocol: as §4, §5

Fyn [8] = assay: Western blot of Fyn phosphorylation in PMA/ionomycin-treated Jurkat cells; format: cell-based, Human; details: N7 1 hour, PMA and ionomycin 15 minutes, FIG. 5a
Protocol: as §1, §2, §3

[9] = N7 1 hour, DNP-HAS 15 minutes, dose-dependent, FIG. 6
[10] = N7 1 hour, DNP-HAS 6 hours, ELISA, dose-dependent, FIG. 6

COc1c(O)c(O)c2c(=O)c3c(CC=C(C)C)c(CC=C(C)C)c(O)c(O)c3oc2c1CC=C(C)C [Nujiangexanthone A]
phosphorylation of Syk (Syk [1]): selectively inhibits
expression of IFN′ (PBMC of asthma patients): does not inhibit
production of IL-5 (PBMC of asthma patients): inhibits
production of IL-13 (PBMC of asthma patients): inhibits
production of IL-17 (PBMC of asthma patients): inhibits
expression of phosphorylated Zap70 (Zap70): inhibits
phosphorylation of Lck (Lck): does not affect
production of IgE in serum ([2]; OVA asthma mice, FIG. 3b): effectively inhibits
level of phosphorylated tyrosine in lung tissues ([2]; immunohistochemistry, FIG. 3d): inhibits
infiltrates in peribronchial inflammatory cell ([2]; lung tissues, H&E and PAS, FIG. 3c): decreases
production of IFNγ in lung tissue (lung tissue): does not affect
production of IL-4 in lung tissue (lung tissue): inhibits
production of IL-5 in lung tissue (lung tissue): inhibits
production of IL-13 in lung tissue (lung tissue): inhibits
production of LTC4 in lung tissue (lung tissue): inhibits
production of PGD2 in lung tissue (lung tissue): inhibits
production of eotaxin in lung tissue (lung tissue): inhibits
phosphorylation of Syk (Syk [3]): selectively inhibits
production of cytokines in spleen tissues (murine spleen cells): inhibits
MAPK signaling pathways ([4]; N7 1 hour, antigen 15 minutes): inhibits
nuclear translocation of p65 ([4]; cytoplasm and nucleus separated): inhibits
production of transcription factors AP-1 (c-Jun+c-fos) [4]: is inhibited
concentration of calcium (Murine BMMCs; [9]): lower
degranulation of mast cells (b-Hex) (Murine BMMCs; [9]): inhibit
production of leukotriene LTC4 (Murine BMMCs; [9]): inhibit
production of IL-6 (Murine BMMCs; [10]): inhibit
production of TNF-α (Murine BMMCs; [10]): inhibit
cytotoxicity (Murine BMMCs; range of concentration used in the activation tests): no cytotoxicity
level of phosphorylated Syk in lung tissues (Syk [5]): inhibits
expression of phosphorylated Syk (Syk [6]): inhibits
expression of phosphorylated Stat6 (Stat6): inhibits
phosphorylation of Lyn (Lyn): does not affect
phosphorylation of Fyn (Fyn [7]): does not affect
expression of T-bet (T-bet): without altering
expression of GATA3 (GATA3): inhibits
phosphorylation of Fyn (Fyn [8]): does not affect
